For assay [1], the target named is T1, 5-hydroxytryptamine receptor 6 (Homo sapiens, UniProt P50406). Briefly: Displacement of [3H]LSD from human 5-HT6 receptor expressed in human HeLa cells after 2 hrs. The assay is classed as cell-based. A general note: Loss of bound radioactivity is the signal in a displacement assay; it reports binding, not function.
The target in assay [2] is T1, 5-hydroxytryptamine receptor 6. Briefly: Agonist activity at human 5-HT6 receptor expressed in human HeLa cells assessed as effect on 5HT-induced intracellular cAMP level after 10 mins by radioimmunoassay. The assay is classed as functional, cell-based.
Assay [3] has the same target. Briefly: Agonist activity at human 5-HT6 receptor expressed in human HeLa cells assessed as effect on 5HT-induced intracellular cAMP level after 10 mins by radioimmunoassay relative to serotonin. The assay is classed as functional, cell-based.
Assay [4] has the same target. Briefly: Antagonist activity at human 5-HT6 receptor expressed in human HeLa cells assessed as inhibition of 5HT-induced intracellular cAMP level after 10 mins by radioimmunoassay. The format is functional, cell-based. (cAMP levels reflect the balance of adenylyl cyclase and phosphodiesterase activity.)
Assay [5] shares this target. Briefly: Antagonist activity at human 5-HT6 receptor expressed in human HeLa cells assessed as inhibition of 5HT-induced intracellular cAMP level after 10 mins by radioimmunoassay relative to serotonin. The assay is classed as functional, cell-based.

T1 sequence (P50406 whole entry): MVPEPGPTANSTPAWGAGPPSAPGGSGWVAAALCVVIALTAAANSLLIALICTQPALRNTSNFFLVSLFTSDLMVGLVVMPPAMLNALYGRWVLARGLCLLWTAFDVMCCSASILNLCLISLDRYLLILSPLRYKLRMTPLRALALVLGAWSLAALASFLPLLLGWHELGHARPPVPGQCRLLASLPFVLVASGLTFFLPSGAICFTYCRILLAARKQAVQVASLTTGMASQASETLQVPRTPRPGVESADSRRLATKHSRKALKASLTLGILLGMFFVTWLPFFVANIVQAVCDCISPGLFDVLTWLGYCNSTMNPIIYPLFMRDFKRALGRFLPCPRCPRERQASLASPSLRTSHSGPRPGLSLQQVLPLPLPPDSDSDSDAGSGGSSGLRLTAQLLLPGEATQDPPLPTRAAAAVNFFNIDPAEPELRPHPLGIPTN

A word on the Ki: it is the dissociation constant of the complex between target and ligand, obtained from inhibition or displacement. Usually EC50 stands for the concentration that produces a half-maximal response. What is called Emax is the size of the effect at its maximum, as opposed to the concentration needed. For the compound `CCN1CCCC(n2cc(S(=O)(=O)c3cccc(F)c3)c3cc(OC)ccc32)C1` (stereo not drawn), the affinity in assay [1], expressed as Ki, was 16 nM. Further, in assay [2], the EC50 was determined as 203 nM. Also, the Emax in assay [3] stood at 50%.

`O=S(=O)(c1cccc(Cl)c1)c1cn(C2CCNC2)c2ccccc12` (stereo not drawn) returned a Ki in assay [1] of 3.2 nM. Moreover, the EC50 in assay [2] worked out at 125 nM. The Emax in assay [3] stood at 48%.

In assay [1], `O=S(=O)(c1ccccc1)c1cn(C2CCN(Cc3ccccc3)C2)c2ccccc12` (stereo not drawn) came in with a Ki of 113 nM.

Broadly, the IC50 is the concentration needed to halve the response being measured. `CN1CCC(n2cc(S(=O)(=O)c3cccc4cccnc34)c3ccccc32)C1` (stereo not drawn) registered a Ki in assay [1] of 2.8 nM. Besides, the IC50 in assay [4] was determined as 76 nM. In addition, the Imax in assay [5] is 97%.

On to `O=S(=O)(c1cccc(F)c1)c1cn(C2CCCNC2)c2ccccc12` (stereo not drawn), for which the Ki in assay [1] came out at 6 nM. In addition, in assay [2], the EC50 came to 56 nM. Further, the Emax in assay [3] was 78%.

`COc1ccc2c(c1)c(S(=O)(=O)c1cccc(F)c1)cn2C1CCCNC1` (stereo not drawn): the Ki in assay [1] amounted to 10.7 nM. Further, in assay [2], the EC50 came out at 73 nM. Also, the Emax in assay [3] was 75%.

As to `O=S(=O)(c1cccc(F)c1)c1cn(C2CCNC2)c2cccc(F)c12` (stereo not drawn), the Ki in assay [1] worked out at 18 nM.

For `CN1CCCC(n2cc(S(=O)(=O)c3cccc4ccccc34)c3ccccc32)C1` (stereo not drawn), the Ki in assay [1] came out at 7.1 nM. Also, the IC50 in assay [4] came out at 107 nM. Further, in assay [5], the Imax was 87%.

In assay [1], `O=S(=O)(c1cn(C2CCNC2)c2ccccc12)c1cccc2cccnc12` (stereo not drawn) displayed a Ki of 1.5 nM. Further, the IC50 in assay [4] was determined as 82 nM. The Imax in assay [5] stood at 64%.

As to `O=S(=O)(c1cccc2ccccc12)c1cn(C2CCNC2)c2ccccc12` (stereo not drawn), the Ki in assay [1] was determined as 23.3 nM. Also, in assay [4], the IC50 came to 107 nM. The Imax in assay [5] amounted to 100%.

In the case of `CCN1CCCC(n2cc(S(=O)(=O)c3ccccc3)c3ccccc32)C1` (stereo not drawn), the Ki in assay [1] came out at 7.3 nM. Moreover, the EC50 in assay [2] stood at 31 nM. For the same compound, the Emax in assay [3] was 52%.

`CN1CCC(n2cc(S(=O)(=O)c3cccc(Cl)c3)c3ccccc32)C1` (stereo not drawn) registered a Ki in assay [1] of 1.3 nM. Moreover, in assay [4], the IC50 was 17 nM. Also, in assay [5], the Imax came out at 86%.

On to `O=S(=O)(c1ccccc1)c1cn(C2CCCNC2)c2ccccc12` (stereo not drawn), for which the EC50 in assay [2] stood at 82 nM. In addition, the Emax in assay [3] was 99%.

As to `O=S(=O)(c1cccc(F)c1)c1cn(C2CCNC2)c2ccccc12` (stereo not drawn), the Ki in assay [1] turned out to be 4.7 nM. In addition, the EC50 in assay [2] is 68 nM. Also, in assay [3], the Emax was 38%.

Turning to `O=S(=O)(c1cccc(F)c1)c1cn(C2CCCNC2)c2ccc(F)cc12` (stereo not drawn), in assay [4], the IC50 came to 18 nM. In addition, the Imax in assay [5] was determined as 85%.

With `O=S(=O)(c1cn(C2CCCNC2)c2ccccc12)c1cccc2cccnc12` (stereo not drawn), in assay [1], the Ki was determined as 5.6 nM. Moreover, the EC50 in assay [2] was 592 nM. For the same compound, in assay [3], the Emax came to 71%.

Regarding `O=S(=O)(c1cccc(F)c1)c1cn(C2CCNC2)c2ccc(F)cc12` (stereo not drawn), affinity in assay [1] was put at a Ki of 9.6 nM. Besides, the EC50 in assay [2] was found to be 38 nM. For the same compound, the Emax in assay [3] was 50%.

For `COc1ccc2c(S(=O)(=O)c3cccc(Cl)c3)cn(C3CCNC3)c2c1` (stereo not drawn), in assay [1], the Ki was 4.6 nM. In addition, the IC50 in assay [4] was 80 nM. In addition, in assay [5], the Imax stood at 100%.

Consider `O=S(=O)(c1ccccc1)c1cn(C2CCNC2)c2ccccc12` (stereo not drawn), for which, in assay [1], the Ki was determined as 5 nM. Besides, the EC50 in assay [2] amounted to 60 nM. Also, in assay [3], the Emax worked out at 70%.

In assay [1], `O=S(=O)(c1cccc(F)c1)c1cn(C2CCNC2)c2cc(Cl)ccc12` (stereo not drawn) returned a Ki of 72 nM.

As to `CN1CCC(n2cc(S(=O)(=O)c3cccc(F)c3)c3ccccc32)C1` (stereo not drawn), the Ki in assay [1] came to 3.5 nM. Besides, in assay [2], the EC50 worked out at 398 nM. In addition, in assay [3], the Emax is 49%.

With `CN1CCC(n2cc(S(=O)(=O)c3cccc(F)c3)c3cc(F)ccc32)C1` (stereo not drawn), the Ki in assay [1] is 5 nM. Moreover, the IC50 in assay [4] was determined as 94 nM. The Imax in assay [5] amounted to 70%.

For the compound `CN1CCC(n2cc(S(=O)(=O)c3cccc4ccccc34)c3ccccc32)C1` (stereo not drawn), the Ki in assay [1] came to 6 nM. The IC50 in assay [4] was 60 nM. Further, the Imax in assay [5] amounted to 98%.

Compound `O=S(=O)(c1cccc(F)c1)c1cn(C2CCNC2)c2cc(F)ccc12` (stereo not drawn) came in with a Ki in assay [1] of 18 nM.

`O=S(=O)(c1cccc(F)c1)c1cn(C2CCNC2)c2ccc(Cl)cc12` (stereo not drawn) registered a Ki in assay [1] of 15 nM.
